Measurements as given in patent US20260315476A1, “COMBINATION TREATMENT METHODS FOR CANCER WITH TP53 MUTATION” (HO'OLA THERAPEUTICS INC., priority 2022, published 2026).
Like-named read-outs stand apart in the source and are kept apart here.

How the values were obtained:
[1] = system: mantle cell lymphoma (MCL); conditions: historical, cited from earlier work
[2] = system: mantle cell lymphoma (MCL); test: Overall survival in MCL; format: in vivo, human; conditions: MCL patients
Protocol: (§1) In Phase 1 study (Part 1), patients with relapsed/refractory (R/R) mantle cell lymphoma (MCL) and R/R chronic lymphocytic leukemia/small lymphocytic lymphoma (CLL/SLL) were enrolled (CLL n=18, MCL n=12). 2, 4, 8, and 16 mg/kg and 300 mg and 600 mg doses of zilovertamab (formerly known as cirmtuzumab) were evaluated. Ibrutinib was added to the treatment after 1 month at dose of 420 mg for CLL, 560 mg for MCL. The recommended dosing regime was 600 mg of zilovertamab (i.v.) once every 2 weeks by three times and then once every 4 weeks in combination with ibrutinib at approved doses per indication (i.e., 420 mg for CLL, 560 mg for MCL).
(§2) In Phase 2 study, patients were divided into two study groups. In study group 1 (Part 2), patients with R/R CLL, R/R MCL, and marginal zone lymphoma (MZL) were enrolled (CLL n=16, MCL n=21). The patients were treated with the recommended dosing regimen from Phase 1 study, that is, zilovertamab (600 mg) and ibrutinib at approved dose (420 mg CLL, 560 mg MCL and MZL). In study group 2 (Part 3), patients with R/R CLL (n=31) were enrolled and randomly treated with either zilovertamab in combination with ibrutinib or ibrutinib alone.

[3] = system: mantle cell lymphoma (MCL); conditions: historical, cited from earlier work; remark: listed apart in the source
[4] = system: mantle cell lymphoma (MCL); conditions: MCL Rule 2017, Relapsed/Refractory, N = 370; cited from earlier work
[5] = system: chronic lymphocytic leukemia (CLL); conditions: Byrd 2019, cited from earlier work
[6] = MCL patients treated with BTKi (e.g., ibrutinib) alone; cited from earlier work
[7] = system: chronic lymphocytic leukemia (CLL); test: Clinical response rates in CLL (Phase 1/2 study, Parts 1 & 2 and Part 3); format: in vivo, human; conditions: Part 3, TN
[8] = system: chronic lymphocytic leukemia (CLL); test: as above; format: in vivo, human
Protocol: as §1, §2

[9] = Treatment emergent adverse events, CLL Part 3; format: in vivo, human
Protocol: as §2

[10] = system: chronic lymphocytic leukemia (CLL); test: Overall survival in CLL; format: in vivo, human; conditions: CLL patients
Protocol: as §1, §2

[11] = Patient disposition and overall tolerability; format: in vivo, human; conditions: CLL Part 3
Protocol: as §1, §2

[12] = Rule 2019, No p53 mutation, N = 124
[13] = Rule 2019, p53 mutation, N = 20

C=CC(=O)N1CCC[C@@H](n2nc(-c3ccc(Oc4ccccc4)cc3)c3c(N)ncnc32)C1 [ibrutinib, 1-[(3R)-3[4-Amino-3-(4-phenoxyphenyl)-1H-pyrazolo[3,4-d]pyrimidin-1-yl]piperidin-1-yl]prop-2-en-1-one]
CR ([1]; Rule 2017, N = 370): 74 (20.0) n (%)
ORR ([1]; Rule 2017, N = 370): 234 (63.2) n (%)
PD ([1]; Rule 2017, N = 370): 86 (23.2) n (%)
CR [1, 12]: 31 (25.0) n (%)
ORR [1, 12]: 87 (70.2) n (%)
PR [1, 12]: 56 (45.2) n (%)
CR [1, 13]: 0 n (%)
ORR [1, 13]: 11 (55.0) n (%)
PR [1, 13]: 11 (55.0) n (%)
median OS [2]: not reached
M PFS (95% CI) ([3]; Rule 2019, No p53 Mutation): 12.0 (7.1, 15.6)
M PFS (95% CI) ([3]; Rule 2019, p53 Mutation): 4.0 (2.1, 8.3)
median OS [4]: 25.0
Landmark PFS ([5]; 24 months, 1 or 2 prior systemic therapies): ~82%
Landmark PFS ([5]; 24 months, >2 prior systemic therapies): ~65%
Landmark PFS ([5]; 36 months, 1 or 2 prior systemic therapies): ~73%
Landmark PFS ([5]; 36 months, >2 prior systemic therapies): ~50%
Grade 3 or 4 neutrophil decrease [6]: 29%
CR [7]: 0 n
PD [7]: 0 n
Complete Response (CR) ([8]; CLL Part 3): 1 (14.3) n (%)
Median Duration of response (95% CI) ([8]; CLL Part 3): NR (8.3, NE)
Overall Response Rate (ORR) ([8]; CLL Part 3): 7 (100.0) n (%)
Partial Response (PR) ([8]; CLL Part 3): 6 (85.7) n (%)
CR ([8]; Part 3, 1 Prior): 0 n
PD ([8]; Part 3, 1 Prior): 0 n
PD ([8]; Part 3, Overall): 0 n
CR ([8]; Part 3, ≥3 Prior): 0 n
Median DoR ([8]; Part 3, ≥3 Prior): 8.3 months
PD ([8]; Part 3, ≥3 Prior): 0 n
Atrial Fibrillation, Grades 1-2 [9]: 1 (10.0) n (%)
Atrial Fibrillation, Grades ≥3 [9]: 1 (10.0) n (%)
Atrial Fibrillation, Overall [9]: 2 (20.0) n (%)
Back pain, Grades 1-2 [9]: 2 (20.0) n (%)
Back pain, Grades ≥3 [9]: 0 n (%)
Back pain, Overall [9]: 2 (20.0) n (%)
Constipation, Grades 1-2 [9]: 3 (30.0) n (%)
Constipation, Grades ≥3 [9]: 0 n (%)
Constipation, Overall [9]: 3 (30.0) n (%)
Contusion, Grades 1-2 [9]: 3 (30.0) n (%)
Contusion, Grades ≥3 [9]: 0 n (%)
Contusion, Overall [9]: 3 (30.0) n (%)
Coronavirus Infection, Grades 1-2 [9]: 1 (10.0) n (%)
Coronavirus Infection, Grades ≥3 [9]: 1 (10.0) n (%)
Coronavirus Infection, Overall [9]: 2 (20.0) n (%)
Diarrhea, Grades 1-2 [9]: 4 (40.0) n (%)
Diarrhea, Grades ≥3 [9]: 0 n (%)
Diarrhea, Overall [9]: 4 (40.0) n (%)
Dizziness, Grades 1-2 [9]: 3 (30.0) n (%)
Dizziness, Grades ≥3 [9]: 0 n (%)
Dizziness, Overall [9]: 3 (30.0) n (%)
Fall, Grades 1-2 [9]: 2 (20.0) n (%)
Fall, Grades ≥3 [9]: 0 n (%)
Fall, Overall [9]: 2 (20.0) n (%)
Fatigue, Grades 1-2 [9]: 2 (20.0) n (%)
Fatigue, Grades ≥3 [9]: 0 n (%)
Fatigue, Overall [9]: 2 (20.0) n (%)
Headache, Grades 1-2 [9]: 3 (30.0) n (%)
Headache, Grades ≥3 [9]: 1 (10.0) n (%)
Headache, Overall [9]: 4 (40.0) n (%)
Hematuria, Grades 1-2 [9]: 3 (30.0) n (%)
Hematuria, Grades ≥3 [9]: 0 n (%)
Hematuria, Overall [9]: 3 (30.0) n (%)
Hemoglobin decrease, Grades 1-2 [9]: 6 (60.0) n (%)
Hemoglobin decrease, Grades ≥3 [9]: 1 (10.0) n (%)
Hemoglobin decrease, Overall [9]: 7 (70.0) n (%)
Hypertension, Grades 1-2 [9]: 1 (10.0) n (%)
Hypertension, Grades ≥3 [9]: 1 (10.0) n (%)
Hypertension, Overall [9]: 2 (20.0) n (%)
Muscle spasms, Grades 1-2 [9]: 2 (20.0) n (%)
Muscle spasms, Grades ≥3 [9]: 0 n (%)
Muscle spasms, Overall [9]: 2 (20.0) n (%)
Nausea, Grades 1-2 [9]: 3 (30.0) n (%)
Nausea, Grades ≥3 [9]: 0 n (%)
Nausea, Overall [9]: 3 (30.0) n (%)
Neutrophils decrease, Grades 1-2 [9]: 1 (10.0) n (%)
Neutrophils decrease, Grades ≥3 [9]: 2 (20.0) n (%)
Neutrophils decrease, Overall [9]: 3 (30.0) n (%)
Platelets decrease, Grades 1-2 [9]: 7 (70.0) n (%)
Platelets decrease, Grades ≥3 [9]: 1 (10.0) n (%)
Platelets decrease, Overall [9]: 8 (80.0) n (%)
Pneumonia, Grades 1-2 [9]: 0 n (%)
Pneumonia, Grades ≥3 [9]: 2 (20.0) n (%)
Pneumonia, Overall [9]: 2 (20.0) n (%)
Pruritis, Grades 1-2 [9]: 2 (20.0) n (%)
Pruritis, Grades ≥3 [9]: 0 n (%)
Pruritis, Overall [9]: 2 (20.0) n (%)
Upper respiratory tract infection, Grades 1-2 [9]: 3 (30.0) n (%)
Upper respiratory tract infection, Grades ≥3 [9]: 0 n (%)
Upper respiratory tract infection, Overall [9]: 3 (30.0) n (%)
median OS [10]: not reached
Study discontinuation: Death [11]: 0 n
